Measurements reported in PubChem BioAssay AID1963840 (Molecular Pharmacology Branch, DTP, NCI, 2024).

Test system: 695427-040-R-J1-PDC complex spheroid viability
Test: Anticancer human tumor 695427-040-R-J1-PDC patient-derived colon adenocarcinoma cell line growth inhibition [POLQ]
Details: for IC50: curve of first compound; for viability, T/C: stronger effect = lower value; active = viability on the fitted dose curve at most 10% of control; inactive = the rest
In short: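 Growth inhibition in 3D: complex spheroids (tumor PDC, HUVEC, MSC) treated with POLQ inhibitor combinations; where Cmax unknown, highest tested concentration 10 microM, except SN-38 at 1 microM.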

[1] = second compound 0.0316 µM, first compound 0.0316 µM
[2] = second compound 0.0316 µM, first compound 0.1 µM
[3] = second compound 0.0316 µM, first compound 0.316 µM
[4] = second compound 0.0316 µM, first compound 1 µM
[5] = second compound 0.1 µM, first compound 0.0316 µM
[6] = second compound 0.1 µM, first compound 0.1 µM
[7] = second compound 0.1 µM, first compound 0.316 µM
[8] = second compound 0.1 µM, first compound 1 µM
[9] = second compound 0.316 µM, first compound 0.0316 µM
[10] = second compound 0.316 µM, first compound 0.1 µM
[11] = second compound 0.316 µM, first compound 0.316 µM
[12] = second compound 0.316 µM, first compound 1 µM
[13] = second compound 1 µM, first compound 0.0316 µM
[14] = second compound 1 µM, first compound 0.1 µM
[15] = second compound 1 µM, first compound 0.316 µM
[16] = second compound 1 µM, first compound 1 µM
[17] = second compound 3.16 µM, first compound 0.0316 µM
[18] = second compound 3.16 µM, first compound 0.1 µM
[19] = second compound 3.16 µM, first compound 0.316 µM
[20] = second compound 3.16 µM, first compound 1 µM
[21] = second compound 10 µM, first compound 0.0316 µM
[22] = second compound 10 µM, first compound 0.1 µM
[23] = second compound 10 µM, first compound 0.316 µM
[24] = second compound 10 µM, first compound 1 µM
[25] = second compound 0.0316 µM, first compound 3.16 µM
[26] = second compound 0.0316 µM, first compound 10 µM
[27] = second compound 0.1 µM, first compound 3.16 µM
[28] = second compound 0.1 µM, first compound 10 µM
[29] = second compound 0.316 µM, first compound 3.16 µM
[30] = second compound 0.316 µM, first compound 10 µM
[31] = second compound 1 µM, first compound 3.16 µM
[32] = second compound 1 µM, first compound 10 µM
[33] = second compound 3.16 µM, first compound 3.16 µM
[34] = second compound 3.16 µM, first compound 10 µM
[35] = second compound 10 µM, first compound 3.16 µM
[36] = second compound 10 µM, first compound 10 µM
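Note: spheroids exposed to compounds for seven days.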
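Throughout, for viability, T/C: 100% = DMSO vehicle control viability.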

C=CCn1c(=O)c2cnc(Nc3ccc(N4CCN(C)CC4)cc3)nc2n1-c1cccc(C(C)(C)O)n1 + Nc1ccc(C#CCN(C(=O)Cc2ncc(C(F)(F)F)cc2C(F)(F)F)c2ccc(F)cc2)nn1
inactive: viability, T/C (second compound 0.0316 µM, first compound 0.00316 µM) 101% | viability, T/C (second compound 0.0316 µM, first compound 0.01 µM) 99.5% | viability, T/C [1] 112% | viability, T/C [2] 101% | viability, T/C [3] 96.7% | viability, T/C [4] 74.6% | viability, T/C (second compound 0.1 µM, first compound 0.00316 µM) 106% | viability, T/C (second compound 0.1 µM, first compound 0.01 µM) 101% | viability, T/C [5] 94.8% | viability, T/C [6] 96.9% | viability, T/C [7] 99.9% | viability, T/C [8] 78% | viability, T/C (second compound 0.316 µM, first compound 0.00316 µM) 113% | viability, T/C (second compound 0.316 µM, first compound 0.01 µM) 107% | viability, T/C [9] 101% | viability, T/C [10] 97.7% | viability, T/C [11] 91.4% | viability, T/C [12] 81% | viability, T/C (second compound 1 µM, first compound 0.00316 µM) 104% | viability, T/C (second compound 1 µM, first compound 0.01 µM) 96% | viability, T/C [13] 96.4% | viability, T/C [14] 94.2% | viability, T/C [15] 93.8% | viability, T/C [16] 71.7% | viability, T/C (second compound 3.16 µM, first compound 0.00316 µM) 98.6% | viability, T/C (second compound 3.16 µM, first compound 0.01 µM) 101% | viability, T/C [17] 107% | viability, T/C [18] 98.7% | viability, T/C [19] 85.8% | viability, T/C [20] 74.2% | viability, T/C (second compound 10 µM, first compound 0.00316 µM) 91.8% | viability, T/C (second compound 10 µM, first compound 0.01 µM) 93.7% | viability, T/C [21] 85.8% | viability, T/C [22] 99.4% | viability, T/C [23] 81.8% | viability, T/C [24] 65.3%
> 1 µM: IC50 (second compound 0.0316 µM) | IC50 (second compound 0.1 µM) | IC50 (second compound 0.316 µM) | IC50 (second compound 1 µM) | IC50 (second compound 3.16 µM) | IC50 (second compound 10 µM)

COc1ccc([C@@H](O)c2cc(-c3ncnc4cc(N5CCOCC5)ccc34)c(F)cc2Cl)nn1 + Nc1ccc(C#CCN(C(=O)Cc2ncc(C(F)(F)F)cc2C(F)(F)F)c2ccc(F)cc2)nn1
inactive: viability, T/C [1] 101% | viability, T/C [2] 91.6% | viability, T/C [3] 99.2% | viability, T/C [4] 89.7% | viability, T/C [25] 84.3% | viability, T/C [26] 60.7% | viability, T/C [5] 105% | viability, T/C [6] 108% | viability, T/C [7] 98.8% | viability, T/C [8] 89.3% | viability, T/C [27] 86.5% | viability, T/C [28] 54% | viability, T/C [9] 108% | viability, T/C [10] 106% | viability, T/C [11] 99.7% | viability, T/C [12] 89.6% | viability, T/C [29] 89.9% | viability, T/C [30] 63.9% | viability, T/C [13] 108% | viability, T/C [14] 97.5% | viability, T/C [15] 91.1% | viability, T/C [16] 91% | viability, T/C [31] 86.2% | viability, T/C [32] 52.2% | viability, T/C [17] 101% | viability, T/C [18] 97.4% | viability, T/C [19] 99.2% | viability, T/C [20] 90.9% | viability, T/C [33] 78.3% | viability, T/C [34] 56.2% | viability, T/C [21] 101% | viability, T/C [22] 92.5% | viability, T/C [23] 90.1% | viability, T/C [24] 89.8% | viability, T/C [35] 82.1% | viability, T/C [36] 55.1%
> 10 µM: IC50 (second compound 0.0316 µM) | IC50 (second compound 0.1 µM) | IC50 (second compound 0.316 µM) | IC50 (second compound 1 µM) | IC50 (second compound 3.16 µM) | IC50 (second compound 10 µM)

COc1cc(C2c3cc4c(cc3C(OC3OC5COC(C)OC5C(O)C3O)C3COC(=O)C23)OCO4)cc(OC)c1O (stereo unspecified) + Nc1ccc(C#CCN(C(=O)Cc2ncc(C(F)(F)F)cc2C(F)(F)F)c2ccc(F)cc2)nn1
inactive: viability, T/C [1] 104% | viability, T/C [2] 97.9% | viability, T/C [3] 98% | viability, T/C [4] 97.8% | viability, T/C [25] 95.2% | viability, T/C [26] 87.4% | viability, T/C [5] 99% | viability, T/C [6] 97.2% | viability, T/C [7] 100% | viability, T/C [8] 104% | viability, T/C [27] 102% | viability, T/C [28] 89.4% | viability, T/C [9] 98.4% | viability, T/C [10] 90.5% | viability, T/C [11] 98.3% | viability, T/C [12] 97.6% | viability, T/C [29] 113% | viability, T/C [30] 91.3% | viability, T/C [13] 101% | viability, T/C [14] 97.5% | viability, T/C [15] 105% | viability, T/C [16] 97.5% | viability, T/C [31] 106% | viability, T/C [32] 73.5% | viability, T/C [17] 96.2% | viability, T/C [18] 94.3% | viability, T/C [19] 98.5% | viability, T/C [20] 99.2% | viability, T/C [33] 101% | viability, T/C [34] 81.5% | viability, T/C [21] 92.7% | viability, T/C [22] 89% | viability, T/C [23] 88.8% | viability, T/C [24] 87.8% | viability, T/C [35] 85.9% | viability, T/C [36] 84.9%
> 10 µM: IC50 (second compound 0.0316 µM) | IC50 (second compound 0.1 µM) | IC50 (second compound 0.316 µM) | IC50 (second compound 1 µM) | IC50 (second compound 3.16 µM) | IC50 (second compound 10 µM)
